Some results are limits rather than exact numbers.

In one data set the test system is ptosis after reserpine. In words: Test B: antagonism of ptosis observed an hour after intravenous injection of reserpine in mice. Type of data set: in vivo. The note with it: Mus musculus, po, ptosis an hour after reserpine 2 mg/kg intravenous, read-out: Test B ED 50. The procedure: Test B: antagonism with respect to ptosis observed an hour after an intravenous injection (2 mg/kg) of reserpine in mice according to the procedure described by Gouret C. and Thomas J. in J. Pharmacol. (Paris), (1973), 4, 401.

The next data set is described as follows: Toxicity (mice). As to conditions: mouse, in vivo, po, read-out: Toxicity (mice) LD 50.
For data set [1], the system named is generalized trembling caused by dl-5-hydroxytryptophane. In words: Test A: potentiation in mice of generalized trembling caused by intraperitoneal injection of dl-5-hydroxytryptophane. Type of data set: in vivo. The note with it: Mus musculus, po, dl-5-hydroxytryptophane 200 mg/kg intraperitoneal, read-out: Test A ED 50. The method, then:
Test A: potentiation in mice of generalized trembling caused by an intraperitoneal injection (200 mg/kg) of dl-5-hydroxytryptophane, according to the procedure described by Gouret C. and Raynaud G. in J. Pharmacol. (Paris) (1974), 5, 231.

As to `COCC1CN(c2ccc(C#Cc3cccc(C#N)c3)cc2)C(=O)O1` (centres unmarked) [compound 282], the ED50 (in the data set with ptosis after reserpine; in data set [1]) was 0.3 mg/kg in each case. Further, the LD50 in “Toxicity (mice)” is more than 1000 mg/kg.
As to `COCC1CN(c2ccc(CCc3cccc(C#N)c3)cc2)C(=O)O1` (centres unmarked) [compound 272], the ED50 was found to be 0.4 mg/kg in the data set with ptosis after reserpine and 0.5 mg/kg in data set [1]. In addition, the LD50 in the data set “Toxicity (mice)” was more than 1000 mg/kg.
Consider `COCC1CN(c2ccc(CCCCCC#N)cc2)C(=O)O1` (centres unmarked) [compound 289], for which the ED50 in the data set on ptosis after reserpine was found to be 0.2 mg/kg; in data set [1], 0.15 mg/kg. Also, the LD50 in “Toxicity (mice)” was more than 1000 mg/kg.
In the case of `Cc1cccc(N2CC(CO)OC2=O)c1` (centres unmarked) [TOLOXATONE, reference compound], the ED50 in the data set with ptosis after reserpine amounted to 50 mg/kg; in data set [1], 60 mg/kg.
As for `COCC1CN(c2ccc(CC(=O)c3cccc(C#N)c3)cc2)C(=O)O1` (centres unmarked) [compound 270], the ED50 (with ptosis after reserpine; in data set [1]) was 0.2 mg/kg each time. For the same compound, the LD50 in the data set “Toxicity (mice)” was more than 1000 mg/kg.
On to `COCC1CN(c2ccc(COc3cccc(C#N)c3)cc2)C(=O)O1` (centres unmarked) [compound 275], for which the ED50 in the data set with ptosis after reserpine came to 0.3 mg/kg; in data set [1], 0.6 mg/kg. The LD50 in the data set “Toxicity (mice)” is more than 1000 mg/kg.
The corresponding values for `COCC1CN(c2ccc(OCCC(C)=O)cc2)C(=O)O1` (centres unmarked) [compound 238] are 1.1 mg/kg, 1.9 mg/kg and more than 1000 mg/kg.
The corresponding values for `COCC1CN(c2ccc(OCCc3cccc(C#N)c3)cc2)C(=O)O1` (centres unmarked) [compound 267] are 1.3 mg/kg, 1.8 mg/kg and more than 1000 mg/kg.
For the compound `COCC1CN(c2ccc(CC(=O)c3cccc(Cl)c3)cc2)C(=O)O1` (centres unmarked) [compound 274], the ED50 in the data set with ptosis after reserpine was found to be 0.9 mg/kg; in data set [1], 1.2 mg/kg. Further, the LD50 in “Toxicity (mice)” is more than 1000 mg/kg.
Take `COCC1CN(c2ccc(C#CC3CCCCC3)cc2)C(=O)O1` (centres unmarked) [compound 281]: the ED50 with ptosis after reserpine amounted to 0.6 mg/kg; in data set [1], 1.3 mg/kg. For the same compound, in “Toxicity (mice)”, the LD50 was more than 1000 mg/kg.
For `COCC1CN(c2ccc(CCc3cccc(Cl)c3)cc2)C(=O)O1` (centres unmarked) [compound 271], in that order: 3.8 mg/kg, 4.1 mg/kg and more than 1000 mg/kg.
For `COCC1CN(c2ccc(-c3ccc(Cl)cc3)cc2)C(=O)O1` (centres unmarked) [compound 269], in that order: 1.2 mg/kg, 1.7 mg/kg and more than 1000 mg/kg.
With `COCC1CN(c2ccc(COc3cccc(Cl)c3)cc2)C(=O)O1` (centres unmarked) [compound 273], the values for the ED50 (with ptosis after reserpine; in data set [1]) were 3.4 mg/kg and 5.9 mg/kg, respectively. In “Toxicity (mice)”, the LD50 is more than 1000 mg/kg.
The corresponding values for `COCC1CN(c2ccc(C#Cc3cccc(Cl)c3)cc2)C(=O)O1` (centres unmarked) [compound 277] are 1.7 mg/kg, 1.2 mg/kg and more than 1000 mg/kg.
The corresponding values for `COCC1CN(c2ccc(OCCc3cccc(Cl)c3)cc2)C(=O)O1` (centres unmarked) [compound 264] are 3 mg/kg, 2.8 mg/kg and more than 1000 mg/kg.
The corresponding values for `COCC1CN(c2ccc(-c3cccc(C#N)c3)cc2)C(=O)O1` (centres unmarked) [compound 284] are 1.3 mg/kg, 1.2 mg/kg and more than 1000 mg/kg.

(Values after patent publication US4517197A, “-N-substituted phenyl-5-methoxymethyl-2-oxazolidinones and pharmaceutical compositions containing same” (Delalande S.A., priority 1980, dated 1985).)
